Results on four molecules are retold here after patent US20180282279A1, “Pantothenamide Analogues” (Radboud Universitair Medisch Centrum, priority 2014, published 2018).

Values after ≈ are worked out from the molar mass of the structure shown. Like-named read-outs stand apart in the source and are kept apart here. Bounds are passed on as bounds.

The subject of assay [1] is Staphylococcus epidermidis. Nature of the assay: Bacterial growth assay and MIC determination, S. epidermidis. To be noted: Staphylococcus epidermidis. Format: cell-based. As for the experimental part: (§1) Strains of Escherichia coli, Staphylococcus aureus and Staphylococcus epidermidis, were grown overnight in 1% Bacto tryptone medium (BD, Sparks, Md.). Streptococcus pyogenes was grown overnight in Bacto Todd Hewitt Broth medium (BD, Sparks, Md.). Cultures were then diluted 1:1,000 in fresh assay medium supplemented with or without 20% fetal bovine serum (FBS; HyClone, Celbio, Logan, Utah) and added to 96-well sterile enzyme-linked immunosorbent assay (ELISA) plates (100 μl per well). The compounds to be tested were diluted in the medium without serum and added to the bacteria (100 μl per well). Plates were incubated at 37° C., and bacterial growth was monitored over time by reading the optical density at 490 nm using a microplate reader (model 450; Bio-Rad Laboratories Inc., Hercules, Calif.). Streptococcus pneumoniae strains were grown to mid-log phase (OD620 of 0.3) and stored in 15% glycerol at […] till further use. Minimal inhibitory concentration (MIC) of antibiotics was determined according to standard procedures. Bacteria were diluted 10-fold in Mueller-Hinton medium (BD, Sparks, Md.) and added to 96-well sterile ELISA plates (150 μl per well). The compounds to be tested were diluted in the medium without serum and added to the bacteria (150 μl per well). Plates were incubated overnight at 37° C. in 5% CO2. The MIC was defined as the lowest concentration of compound at which no growth was visible with the naked eye.

The test system of assay [2] is S. aureus (SA), S. epidermidis (SE), S. pyogenes (SP), S. pneumoniae (SPn). Nature of the assay: MIC for most sensitive bacterial species (panel). Format: cell-based. The conditions noted are these: Table 1, no species named, read-out: MIC (μg/ml) for most sensitive bacterial species. The protocol:
as §1

Assay [3] deals with transgenic P. falciparum NF54 strain that expresses a luciferase reporter gene, in Anopheles stephensi mosquitoes. Kind of assay: Standard Membrane Feeding Assay (SMFA), luciferase reporter. To be noted: for IC50: indirect mode of the SMFA. Format: in vivo, Plasmodium falciparum. As for the experimental part:
To assess the effect of a reduction in gametocyte viability and or capacity to form a gamete on actual transmission of the parasites, Standard Membrane Feeding Assays (SMFA) were performed using a transgenic P. falciparum NF54 strain that expresses a luciferase reporter gene from a hsp70 promoter. Parasite cultures showing ˜3% mature gametocytes were checked for the ability to show exflagellation after addition of xanthurenic acid to a final concentration of 40 μM. Infectivity of cultures showing positive exflagellation was tested in a ‘prefeed’ experiment as described previously (Antimicrob Agents Chemother, 2012. 56(7): p. 3544-8). Cultures showing development of retorts and ookinetes in the mosquito midgut were selected for testing of compounds. In the indirect mode of the assay, gametocytes were pre-incubated with compound prior to mosquito feeding. To this end, 40 μl compound diluted in parasite culture medium was added to 360 μl of parasite culture and incubated for 24 hrs at 37° C. in Eppendorf tubes (0.1% DMSO final concentration). Hereafter, 300 μl was added to 180 μl of packed red blood cells and centrifuged for 20 seconds at 10,000 g. After carefully aspirating the supernatant, 200 μl of human serum type A was added to the pellet. Finally, 300 μl was immediately injected into an individual membrane-covered minifeeder, where 50 Anopheles stephensi mosquitoes of 1-to-5-days old were allowed to feed for 10 minutes and non-fed mosquitoes were removed from the cage. Eight days after feeding, 20 mosquitoes were sacrificed and parasite luciferase activity was measured as described previously (Stone, J Infect Dis. 2014 in press). For the direct SMFA, 300 μl parasite culture was added to 180 μl red blood cells, centrifuged for 20 seconds at 10,000 g and the supernatant was carefully aspirated. Meanwhile, 10 μl of compound diluted in incomplete medium was added to 490 μl human serum type A (0.1% DMSO final). 200 μl of this compound containing human serum was added to the pellet, which was subsequently used for the SMFA as described above. For dose response analyses, compounds were diluted in DMSO with subsequent dilution in culture medium to a final DMSO concentration of 0.1%. Controls included vehicle (0.1% DMSO) and DHA at its approximate IC90 (10 μM). Data were analyzed by logistic regression using the formula: Y=Bottom+(Top−Bottom)/(1+10̂((Log IC50−X)*HillSlope)) and a least squares method to find the best fit.
In general terms: A reporter such as luciferase makes a cellular process visible.

Another assay relates to Streptococcus pyogenes. Kind of assay: Bacterial growth assay and MIC determination, S. pyogenes. Format: cell-based. To be noted: Streptococcus pyogenes; S. pyogenes, serum −; read-out: MIC. The protocol: as §1
The next assay relates to Streptococcus pneumoniae. Nature of the assay: MIC determination, S. pneumoniae. The conditions noted are these: Streptococcus pneumoniae; S. pneumoniae, serum −; read-out: MIC. Format: cell-based. The protocol: Streptococcus pneumoniae strains were grown to mid-log phase (OD620 of 0.3) and stored in 15% glycerol at […] till further use. Minimal inhibitory concentration (MIC) of antibiotics was determined according to standard procedures. Bacteria were diluted 10-fold in Mueller-Hinton medium (BD, Sparks, Md.) and added to 96-well sterile ELISA plates (150 μl per well). The compounds to be tested were diluted in the medium without serum and added to the bacteria (150 μl per well). Plates were incubated overnight at 37° C. in 5% CO2. The MIC was defined as the lowest concentration of compound at which no growth was visible with the naked eye.

The next assay deals with Escherichia coli. Nature of the assay: Bacterial growth assay and MIC determination, E. coli. Format: cell-based. The conditions noted are these: Escherichia coli, serum −, read-out: MIC. As for the experimental part:
as §1

For assay [4], the system named is Plasmodium berghei strain 676c11 (PbGFP-Luc). Nature of the assay: In vivo rodent malaria model. The conditions noted are these: female Wistar rats, 100 mg/kg orally three times a day, day 5-8. From the text:
Female mice (C57 Black 6, 9-10 weeks of age at the start of the experiment) and female rats (Wistar, 150-200 grams at the beginning of the experiment) were housed under standard conditions and experiments were approved by the institutional ethical committee on animal care and experimentation of Radboud University Medical Centre (Nijmegen).
To test our compounds in an in vivo malaria model we used a well described rodent malaria model (Zuckerman and Yoeli, J Infect Dis. 94, 225-36). First, donor mice were infected by 0.2 ml cryopreserved infected blood stocks containing the transgenic Plasmodium berghei strain 676c11 (PbGFP-Luc). After four days the mice were sacrificed and their blood was collected. The parasitemia in the blood from the mice was calculated as percentage of infected red blood cells (RBC) by Giemsa-stained blood smears. Infected blood was diluted to 5×10^7 parasites per ml and 0.2 ml was i.p. injected in rats (inoculation of 10′ parasites per rat). Treatment with chloroquine (6 mg/kg), CXP18.6-017 (100 mg/kg) and CXP18.6-052 (100 mg/kg) started 5 days post inoculation and where given orally three times a day until day eight. From day 5 blood samples were collected and parasitemia was determined by analysis of Giemsa-stained blood smears. The infection and treatment regimes were well tolerated by the animals.

Where [5] appears, read: Table 1, most sensitive species S. epidermidis (SE), read-out: MIC (μg/ml) for most sensitive bacterial species.
Where [6] appears, read: 24 hrs pre-incubation, read-out: IC50 on the average luciferase intensity.
The mark [7] stands for this setting: read-out: IC50 on parasite prevalence (percentage of infected mosquitoes).

In the case of `CC(C)(CO)[C@@H](O)C(=O)NCCNC(=O)CCc1ccccc1` [CXP18.6-006], the MIC in assay [1] (setting [5]) was 16 µg/mL (≈ 49.6 µM).
Broadly, the IC50 is the concentration that inhibits the measured activity by half. For the molecule `Cc1ccc(CCC(=O)NCCNC(=O)[C@H](O)C(C)(C)CO)cc1` [CXP18.6-026], the MIC in assay [2] (tested for SA, SE, SP and SPn) is over 32 µg/mL. Besides, the figures for the IC50 in assay [3] (setting [6]) and in assay [3] (setting [7]) were 107 nM and 370 nM, respectively.
Take `CC(C)(CO)[C@@H](O)C(=O)NCCNC(=O)CCc1ccccc1F` [CXP18.6-017]: the MIC was 32 µg/mL (≈ 94 µM) in assay [1] (S. epidermidis, serum −, read-out: MIC); 2 µg/mL (≈ 5.88 µM) in assay [1] (setting [5]); 8 µg/mL (≈ 23.5 µM) in the assay with Streptococcus pyogenes; over 32 µg/mL in the assay with Streptococcus pneumoniae; over 256 µg/mL in the assay on Escherichia coli. The “inhibitory effect in the indirect mode compared with the direct mode” value in assay [3] (gametocytes pre-exposed prior to mosquito feeding) is recorded as “stronger”. Moreover, the “luciferase intensity in the direct mode of the assay” value in assay [3] (in comparison with the DMSO control) is listed as “reduced luciferase intensity”. The IC50 was found to be 20 nM in assay [3] (setting [6]) and 178 nM in assay [3] (setting [7]). The parasitemia entry in assay [4] was “reduced parasitemia with similar kinetics as found for chloroquine”.
Turning to `CC(C)(CO)[C@@H](O)C(=O)NCCNC(=O)CCc1cccnc1` [CXP18.6-052], the MIC in assay [2] (Streptococcus pneumoniae, marked *: not tested for S. pneumoniae) was over 32 µg/mL. Besides, the parasitemia entry in assay [4] is listed as “significant, albeit partial, reduction of parasitemia”.
